# No end group written: not given here.
# What was measured:
# [1] = test system: Leptospira interrogans sl serovar canicola; assay: Trial 2: gerbils immunized with PP-KLH or PP, 10^−2 canicola challenge; assay type: in vivo, gerbil; design: Mortality rate / Survival rate: unit not given here
# Procedure: An immunization/challenge trial was carried out in order to evaluate the protection that can be provided by the PP peptide (SEQ ID No. 1) coupled or not coupled to the KLH protein.
# This construct is administered subcutaneously without adjuvant, and PBS is administered by the same route as the negative control (batch 3). • Batch 1: 12 gerbils, 2 injections of 30 μg of PP-KLH in 300 μl. • Batch 2: 12 gerbils, 2 injections of 30 μg of PP in 300 μl. • Batch 3: 15 gerbils, 2 injections of PBS in 300 A1.
# The two injections in a volume of 300 μl were administered subcutaneously, two weeks apart. A challenge by intraperitoneal injection of 0.5 ml of a serovar canicola leptospiral culture with a titer of 90 to 100 TU (turbidimetry) diluted to 10^−2 was administered three weeks after the second injection.
# PP peptide = assay: Immunization of rabbit with noncoupled PP peptide, anti-PP IgG ELISA; assay type: in vivo
# Procedure: To test the immunogenicity of the PP peptide alone, immunization with the PP peptide in the rabbit model was carried out, with incomplete Freund's adjuvant being added to each injection.
# More precisely, two injections of 400 μg of PP peptide with incomplete Freund's adjuvant (v/v) were administered in a total volume of 2 ml.
# The two injections were administered subcutaneously, two weeks apart. The rabbit serum was recovered two weeks after the second injection. The anti-PP antibodies were titered on this serum.
# The anti-PP antibodies were titered in the rabbit by the ELISA technique described above, with a biotinylated anti-rabbit antiglobulin (BioAtlantic) at 1/3000 and peroxidase-coupled streptavidin as visualizing agent (RPN1231, Amersham pharmacia biotech)
# The results of the anti-PP IgG antibody response, expressed as corrected OD (OD at D28, therefore after the second immunization, minus the OD at D0), of the immunization trial with the PP peptide are given in FIG. 3.
# [2] = test system: Leptospira interrogans sl serovar canicola; assay: Trial 1: gerbils immunized with PP-KLH, 10^−2.5 canicola challenge; assay type: in vivo, gerbil; details: Experiment 1, survival
# Procedure: An immunization/challenge protocol was carried out in order to evaluate the protection that can be provided by the PP peptide (SEQ ID No. 1) coupled to the KLH protein.
# This construct is administered subcutaneously without adjuvant, with PBS as a negative control (batch 2).
# Batch 1: 10 gerbils, 2 injections of 30 μg of PP-KLH in 300 μl, subcutaneously.
# Batch 2: 10 gerbils, 2 injections of PBS in 300 μl.
# The two injections in a volume of 300 μl were administered subcutaneously, two weeks apart. A challenge by intraperitoneal injection of 0.5 ml of a canicola culture with a titer of 90 to 100 TU (turbidimetry) diluted to 10^−2.5 was administered two weeks after the second injection. • Antigenic response: Monitoring by ELISA of the immune response of the gerbils against the PP peptide
sequence,measurement,setting,value
"KAKPVQKLDDDDDGDDTYKEERHNK [PP peptide, 25 amino acid peptide, fragment aa153-aa177 of the PPL protein of Leptospira interrogans]",Mortality rate,[1]; 10^−2 canicola challenge,33.3
same,Survival rate,[1]; 10^−2 canicola challenge,66.7
same,mortality in the group (dead/number),[1]; 10^−2 canicola challenge,4/12
same,gerbils at challenge,"[1]; 10^−2 canicola challenge, D0",12
same,mortality of gerbils (dead/number),"[1]; 10^−2 canicola challenge, D4",0/12
same,mortality of gerbils (dead/number),"[1]; 10^−2 canicola challenge, D5",0/12
same,mortality of gerbils (dead/number),"[1]; 10^−2 canicola challenge, D6",0/12
same,mortality of gerbils (dead/number),"[1]; 10^−2 canicola challenge, D7",0/12
same,mortality of gerbils (dead/number),"[1]; 10^−2 canicola challenge, D8",2/12
same,mortality of gerbils (dead/number),"[1]; 10^−2 canicola challenge, D9",2/10
same,mortality of gerbils (dead/number),"[1]; 10^−2 canicola challenge, D10",0/8
same,mortality of gerbils (dead/number),"[1]; 10^−2 canicola challenge, D11",0/8
same,mortality of gerbils (dead/number),"[1]; 10^−2 canicola challenge, D12",0/8
same,mortality of gerbils (dead/number),"[1]; 10^−2 canicola challenge, D13",0/8
same,mortality of gerbils (dead/number),"[1]; 10^−2 canicola challenge, D14",0/8
same,mortality of gerbils (dead/number),"[1]; 10^−2 canicola challenge, D15",0/8
same,mortality of gerbils (dead/number),"[1]; 10^−2 canicola challenge, D16",0/8
same,mortality of gerbils (dead/number),"[1]; 10^−2 canicola challenge, D17",0/8
same,mortality of gerbils (dead/number),"[1]; 10^−2 canicola challenge, D28",0/8
same,"p, log-rank test versus control","[1]; Experiment 2, survival",< 0.02
same,"χ^2, log-rank test versus control","[1]; Experiment 2, survival",5.64
same,"p, log-rank test versus control","[1]; Experiment 2, survival, listed as PP",<2.10^−2
same,serum dilution at which response against the PP peptide can still be detected,"PP peptide; 2 s.c. injections of 400 μg with incomplete Freund's adjuvant, D28",≥ 102 400
same,immunogenicity,PP peptide; peptide alone,very immunogenic
same,"p, log-rank test versus control",[2],< 0.07

# From patent US20070197432A1, “Peptides for preventing, diagnosing and treating animal and/or human leptospirosis” (priority 2002, published 2007)
